One compound from patent US10246483B2, “Bile acid analogs as FXR/TGR5 agonists and methods of use thereof” (ENANTA PHARMACEUTICALS, INC., priority 2015, dated 2019) can be followed below.

For this assay, the target named is T1, human FXR (NR1H4) (Homo sapiens, UniProt Q96RI1).
T1 construct: host or cells: CHO (Chinese hamster ovary) reporter cells
T1 sequence (Q96RI1 1-486): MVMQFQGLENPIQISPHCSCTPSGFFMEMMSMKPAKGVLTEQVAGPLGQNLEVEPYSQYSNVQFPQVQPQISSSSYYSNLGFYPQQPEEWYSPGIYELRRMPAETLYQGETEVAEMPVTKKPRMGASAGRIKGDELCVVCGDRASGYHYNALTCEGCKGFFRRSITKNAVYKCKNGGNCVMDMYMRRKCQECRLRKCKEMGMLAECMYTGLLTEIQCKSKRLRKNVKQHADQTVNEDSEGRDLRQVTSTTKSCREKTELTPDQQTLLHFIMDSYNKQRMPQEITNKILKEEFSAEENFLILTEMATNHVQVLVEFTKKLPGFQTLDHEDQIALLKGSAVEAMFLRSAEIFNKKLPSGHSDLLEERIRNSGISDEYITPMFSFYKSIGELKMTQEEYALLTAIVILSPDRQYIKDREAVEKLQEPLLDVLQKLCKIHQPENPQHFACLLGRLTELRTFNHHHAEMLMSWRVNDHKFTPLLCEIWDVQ
Briefly: Human FXR (NR1H4) reporter assay (Gal4 promoter driven transactivation, luciferase). It is filed as cell-based. The text has this:
Human FXR (NR1H4) Assay Determination of a ligand mediated Gal4 promoter driven transactivation to quantify ligand binding mediated activation of FXR. FXR Reporter Assay kit purchased from Indigo Bioscience (Catalogue number: IB00601) to determine the potency and efficacy of compound developed by Enanta that can induce FXR activation. The principle application of this reporter assay system is to quantify functional activity of human FXR. The assay utilizes non-human mammalian cells, CHO (Chinese hamster ovary) cells engineered to express human NR1H4 protein (referred to as FXR). Reporter cells also incorporate the cDNA encoding beetle luciferase which catalyzes the substrates and yields photon emission. Luminescence intensity of the reaction is quantified using a plate-reading luminometer, Envision. […] Thus, quantifying changes in luciferase expression in the treated reporter cells provides a sensitive surrogate measure of the changes in FXR activity. […] Thirty minutes before intending to quantify FXR activity, remove Detection Substrate and Detection Buffer from the refrigerator and place them in a low-light area so that they may equilibrate to room temperature. […] Set the instrument (Envision) to perform a single 5 second “plate shake” prior to reading the first assay well. Read time may be 0.5 second (500 mSec) per well.

Turning to `CC[C@@H]1C2C[C@H](O)CCC2(C)[C@H]2CCC3(C)C([C@H](C)CCC(=O)NC(=N)Nc4ccccc4)CC[C@H]3[C@@H]2[C@@H]1O` (some centres unmarked) [Example 1], the EC50 was in the range of 100 to 1000 nM. The “Efficacy (%)” value (CHO reporter cells expressing human NR1H4, normalized to CDCA set as 100%) is 248%.
